Results taken from PubChem BioAssay (NCI).
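A five-concentration, 48-hour dose response in 96-well plates underlies each endpoint, interpolated linearly between surrounding concentrations. Abbreviation: GI50, concentration required for 50% inhibition of growth. Definition used: TGI = concentration required for complete inhibition of growth.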

Legend:
Assay in all cases: NCI-60 cell line screen, 48 h
SNB-19 CNS = test system: SNB-19 CNS
HS 578T breast = test system: HS 578T breast
PC-3 prostate = test system: PC-3 prostate
HOP-62 NSCLC = test system: HOP-62 NSCLC
MOLT-4 leukemia = test system: MOLT-4 leukemia
KM12 colon = test system: KM12 colon
NCI-H460 lung = test system: NCI-H460 lung
M14 melanoma = test system: M14 melanoma
T-47D breast = test system: T-47D breast
SK-MEL-28 melanoma = test system: SK-MEL-28 melanoma
SF-539 CNS = test system: SF-539 CNS
BT-549 breast = test system: BT-549 breast
HCT-15 colon = test system: HCT-15 colon
MDA-MB-435 = test system: MDA-MB-435
CAKI-1 renal = test system: CAKI-1 renal
HCT-116 colon = test system: HCT-116 colon
UACC-257 melanoma = test system: UACC-257 melanoma
MDA-MB-468 breast = test system: MDA-MB-468 breast
SK-MEL-5 melanoma = test system: SK-MEL-5 melanoma
A549 NSCLC = test system: A549 NSCLC
RPMI-8226 leukemia = test system: RPMI-8226 leukemia
A498 renal = test system: A498 renal
MDA-MB-231 breast = test system: MDA-MB-231 breast
K-562 leukemia = test system: K-562 leukemia
SF-268 CNS = test system: SF-268 CNS
LOX IMVI melanoma = test system: LOX IMVI melanoma
OVCAR-3 ovarian = test system: OVCAR-3 ovarian
SNB-75 CNS = test system: SNB-75 CNS
SK-OV-3 ovarian = test system: SK-OV-3 ovarian
RXF 393 renal = test system: RXF 393 renal
NCI-H226 lung = test system: NCI-H226 lung
OVCAR-8 ovarian = test system: OVCAR-8 ovarian
SN12C renal = test system: SN12C renal
SW-620 colon = test system: SW-620 colon
TK-10 renal = test system: TK-10 renal
HT29 colon = test system: HT29 colon
MCF7 breast = test system: MCF7 breast
IGROV1 ovarian = test system: IGROV1 ovarian
OVCAR-5 ovarian = test system: OVCAR-5 ovarian
DU-145 prostate = test system: DU-145 prostate
ACHN renal = test system: ACHN renal
UACC-62 melanoma = test system: UACC-62 melanoma
786-0 renal = test system: 786-0 renal
U251 CNS = test system: U251 CNS
HCC-2998 colon = test system: HCC-2998 colon
SR leukemia = test system: SR leukemia
OVCAR-4 ovarian = test system: OVCAR-4 ovarian
NCI-H23 lung = test system: NCI-H23 lung
HOP-92 NSCLC = test system: HOP-92 NSCLC
NCI-H522 lung = test system: NCI-H522 lung
UO-31 renal = test system: UO-31 renal
HL-60(TB) leukemia = test system: HL-60(TB) leukemia
SF-295 CNS = test system: SF-295 CNS
CCRF-CEM leukemia = test system: CCRF-CEM leukemia
SK-MEL-2 melanoma = test system: SK-MEL-2 melanoma
EKVX NSCLC = test system: EKVX NSCLC
COLO 205 colon = test system: COLO 205 colon
MALME-3M melanoma = test system: MALME-3M melanoma

`O=C(/C=C/c1ccc(Br)cc1)c1nc2ccccc2n1Cc1ccc(Br)cc1` was tested, and the GI50 (SNB-19 CNS) was over 100 µM, the TGI (SNB-19 CNS) was over 100 µM and the GI50 (HS 578T breast) was over 100 µM. It also gave a TGI (HS 578T breast) of over 100 µM, a GI50 (PC-3 prostate) of 58.6 µM and a TGI (PC-3 prostate) of over 100 µM. It also gave a GI50 (HOP-62 NSCLC) of over 100 µM, a TGI (HOP-62 NSCLC) of over 100 µM and a GI50 (MOLT-4 leukemia) of 17 µM. For the same compound, the TGI (MOLT-4 leukemia) was over 100 µM, the GI50 (KM12 colon) was 80.5 µM and the TGI (KM12 colon) was over 100 µM. The GI50 (NCI-H460 lung) was 59.3 µM, the TGI (NCI-H460 lung) was over 100 µM and the GI50 (M14 melanoma) was over 100 µM. For the same compound, the TGI (M14 melanoma) was over 100 µM, the GI50 (T-47D breast) was 24.7 µM and the TGI (T-47D breast) was over 100 µM. It also gave a GI50 (SK-MEL-28 melanoma) of over 100 µM, a TGI (SK-MEL-28 melanoma) of over 100 µM and a GI50 (SF-539 CNS) of over 100 µM. It also gave a TGI (SF-539 CNS) of over 100 µM, a GI50 (BT-549 breast) of 96 µM and a TGI (BT-549 breast) of over 100 µM. It also gave a GI50 (HCT-15 colon) of 40.5 µM, a TGI (HCT-15 colon) of over 100 µM and a GI50 (MDA-MB-435) of 35.6 µM. It also gave a TGI (MDA-MB-435) of over 100 µM, a GI50 (CAKI-1 renal) of 53 µM and a TGI (CAKI-1 renal) of over 100 µM. It also gave a GI50 (HCT-116 colon) of 56.6 µM, a TGI (HCT-116 colon) of over 100 µM and a GI50 (UACC-257 melanoma) of over 100 µM. It also gave a TGI (UACC-257 melanoma) of over 100 µM, a GI50 (MDA-MB-468 breast) of 35.9 µM and a TGI (MDA-MB-468 breast) of over 100 µM. It also gave a GI50 (SK-MEL-5 melanoma) of over 100 µM, a TGI (SK-MEL-5 melanoma) of over 100 µM and a GI50 (A549 NSCLC) of over 100 µM. It also gave a TGI (A549 NSCLC) of over 100 µM, a GI50 (RPMI-8226 leukemia) of 25.2 µM and a TGI (RPMI-8226 leukemia) of over 100 µM. For the same compound, the GI50 (A498 renal) was over 100 µM, the TGI (A498 renal) was over 100 µM and the GI50 (MDA-MB-231 breast) was 99.1 µM. It also gave a TGI (MDA-MB-231 breast) of over 100 µM, a GI50 (K-562 leukemia) of 39.5 µM and a TGI (K-562 leukemia) of over 100 µM. For the same compound, the GI50 (SF-268 CNS) was over 100 µM, the TGI (SF-268 CNS) was over 100 µM and the GI50 (LOX IMVI melanoma) was 30.9 µM. The TGI (LOX IMVI melanoma) was over 100 µM, the GI50 (OVCAR-3 ovarian) was 35 µM and the TGI (OVCAR-3 ovarian) was over 100 µM. For the same compound, the GI50 (SNB-75 CNS) was over 100 µM, the TGI (SNB-75 CNS) was over 100 µM and the GI50 (SK-OV-3 ovarian) was over 100 µM. It also gave a TGI (SK-OV-3 ovarian) of over 100 µM, a GI50 (RXF 393 renal) of 86.9 µM and a TGI (RXF 393 renal) of over 100 µM. For the same compound, the GI50 (NCI-H226 lung) was over 100 µM, the TGI (NCI-H226 lung) was over 100 µM and the GI50 (OVCAR-8 ovarian) was 97.7 µM. For the same compound, the TGI (OVCAR-8 ovarian) was over 100 µM, the GI50 (SN12C renal) was over 100 µM and the TGI (SN12C renal) was over 100 µM. The GI50 (SW-620 colon) was 30 µM, the TGI (SW-620 colon) was over 100 µM and the GI50 (TK-10 renal) was over 100 µM. It also gave a TGI (TK-10 renal) of over 100 µM, a GI50 (HT29 colon) of 68.7 µM and a TGI (HT29 colon) of over 100 µM. The GI50 (MCF7 breast) was 24.1 µM, the TGI (MCF7 breast) was over 100 µM and the GI50 (IGROV1 ovarian) was over 100 µM. For the same compound, the TGI (IGROV1 ovarian) was over 100 µM, the GI50 (OVCAR-5 ovarian) was over 100 µM and the TGI (OVCAR-5 ovarian) was over 100 µM. For the same compound, the GI50 (DU-145 prostate) was over 100 µM, the TGI (DU-145 prostate) was over 100 µM and the GI50 (ACHN renal) was over 100 µM. For the same compound, the TGI (ACHN renal) was over 100 µM, the GI50 (UACC-62 melanoma) was over 100 µM and the TGI (UACC-62 melanoma) was over 100 µM. For the same compound, the GI50 (786-0 renal) was over 100 µM, the TGI (786-0 renal) was over 100 µM and the GI50 (U251 CNS) was 42.6 µM. It also gave a TGI (U251 CNS) of over 100 µM, a GI50 (HCC-2998 colon) of over 100 µM and a TGI (HCC-2998 colon) of over 100 µM. It also gave a GI50 (SR leukemia) of 28 µM, a TGI (SR leukemia) of over 100 µM and a GI50 (OVCAR-4 ovarian) of over 100 µM. It also gave a TGI (OVCAR-4 ovarian) of over 100 µM, a GI50 (NCI-H23 lung) of over 100 µM and a TGI (NCI-H23 lung) of over 100 µM. It also gave a GI50 (HOP-92 NSCLC) of 58.6 µM, a TGI (HOP-92 NSCLC) of over 100 µM and a GI50 (NCI-H522 lung) of over 100 µM. For the same compound, the TGI (NCI-H522 lung) was over 100 µM, the GI50 (UO-31 renal) was 45.9 µM and the TGI (UO-31 renal) was over 100 µM. It also gave a GI50 (HL-60(TB) leukemia) of 24.1 µM, a TGI (HL-60(TB) leukemia) of over 100 µM and a GI50 (SF-295 CNS) of over 100 µM. The TGI (SF-295 CNS) was over 100 µM, the GI50 (CCRF-CEM leukemia) was 18.2 µM and the TGI (CCRF-CEM leukemia) was over 100 µM. The GI50 (SK-MEL-2 melanoma) was over 100 µM, the TGI (SK-MEL-2 melanoma) was over 100 µM and the GI50 (EKVX NSCLC) was over 100 µM. It also gave a TGI (EKVX NSCLC) of over 100 µM, a GI50 (COLO 205 colon) of over 100 µM and a TGI (COLO 205 colon) of over 100 µM. For the same compound, the GI50 (MALME-3M melanoma) was over 100 µM and the TGI (MALME-3M melanoma) was over 100 µM.
